Data published in patent US12280144B2, “Gel compositions for mitigation of burn injuries, kits containing the gel compositions, and associated methods” (priority 2019, dated 2025).

Columns and labels:
[1] = cited from earlier work; for pKa1 / pKa2: 25° C.; for pKa: Table 1, pKa of the parent weak acid of the sodium salt
[2] = at 25° C.; KCl and NaHCO3 values are assumed (NaHCO3: Leaist et al); cited from earlier work
[3] = Acid/base dissociation constants of weak acids and their sodium salts; conditions: anion of the salt in water; for Kb: Kb=10^−pKb
[4] = external use on burn wounds in HSST; cited from earlier work

**Q.** Which pKa1 [1] does the source give for O=C(O)CC(O)(CC(=O)O)C(=O)O [Citric Acid] here?
**A.** 2.92

**Q.** What about the pKa2 [1] of the same compound?
**A.** 4.28

**Q.** And the pKa3 [1]?
**A.** 5.21

**Q.** Which “diffusivity in water DAB” value [2] does the source give for [Cl-].[K+] [KCl] here?
**A.** 13.6·10^−6 cm^2/s

**Q.** For CC(O)C(=O)O (stereo not shown) [Lactic Acid], which Kb [3] is on record?
**A.** 7.24*10^−12

**Q.** With O=C([O-])O.[Na+] [Sodium Bicarbonate] as the compound, how does the pKa1 [1] read?
**A.** 6.35

**Q.** And the pKa2 [1]?
**A.** 10.3

**Q.** What about the pKa [1] of the same compound?
**A.** 6.35

**Q.** And the Kb [3]?
**A.** 2.24*10^−6

**Q.** What about the pKb ([3]; pKb=14.00−pKa, 25° C.) of the same compound?
**A.** 7.65

**Q.** With CC(O)C(=O)[O-].[Na+] (stereo not shown) [Sodium Lactate] as the compound, how does the pKa [1] read?
**A.** 3.86

**Q.** With O=C([O-])CC(O)(CC(=O)[O-])C(=O)[O-].[Na+].[Na+].[Na+] [Trisodium Citrate] as the compound, how does the pKa [1] read?
**A.** 3.14

**Q.** Which “dosage considered safe for external use” value [4] does the source give for CCN(CC)CC(=O)Nc1c(C)cccc1C [lidocaine] here?
**A.** less than 400 mg
